Data from patent US20080199899A1, “Method For Screening Modulators of Mitochondrial Functioning and New Modulators Obtained” (priority 2002, published 2008).
Positions of bridges follow the written chain, without caps; N, C: chain ends. No end group written: not given here.

Tested on: Human umbilical vein endothelial cells (HUVEC)
Test: Apoptosis of HUVEC by FACS analysis after 7AAD staining
Type: cell-based
Conditions: 5 to 30 μM, 24 to 96 h; FIG. 13
Experimental: Human umbilical vein endothelial cells were treated with Seq.
HUVEC cells were incubated for 24 to 96 h with 5 or 30 μM of peptide Seq. ID n 5, control peptide, or left untreated. Apoptosis was characterized by FACS analysis after 7AAD staining. A. Dose-response versus control peptide. B. Increasing incubation times with or without 10 μM peptides and staining with 7AAD and detection by FACS analysis.

GG*CRGDMFG*CGGLLFIHFRIGSRHSRIG (GGCRGDMFGCGGLLFIHFRIGSRHSRIG; disulfide 3-10) [SEQ ID N^o 5]
apoptosis of HUVEC (in words): apoptosis induction
